The target of one assay is HDAC1 (Homo sapiens (Human), UniProt Q13547). As to the kind of experiment: HDAC1 enzymatic assay. The assay is classed as biochemical. The settings on record: read-out: Human HDAC1 IC50. In a few lines: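 Compound inhibition of human HDAC1 (0.5 ng enzyme, 10 uM substrate) was assessed by fluorescence after developer treatment, excitation 360 nm and emission 460 nm. Percent activity was normalized to no-compound (100%) and no-enzyme (0%) controls, plotted against concentration, and fitted to a sigmoidal dose-response curve in Graphpad Prism to obtain IC50 at half-maximal activity.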
Chain of HDAC1 (Q13547 whole entry): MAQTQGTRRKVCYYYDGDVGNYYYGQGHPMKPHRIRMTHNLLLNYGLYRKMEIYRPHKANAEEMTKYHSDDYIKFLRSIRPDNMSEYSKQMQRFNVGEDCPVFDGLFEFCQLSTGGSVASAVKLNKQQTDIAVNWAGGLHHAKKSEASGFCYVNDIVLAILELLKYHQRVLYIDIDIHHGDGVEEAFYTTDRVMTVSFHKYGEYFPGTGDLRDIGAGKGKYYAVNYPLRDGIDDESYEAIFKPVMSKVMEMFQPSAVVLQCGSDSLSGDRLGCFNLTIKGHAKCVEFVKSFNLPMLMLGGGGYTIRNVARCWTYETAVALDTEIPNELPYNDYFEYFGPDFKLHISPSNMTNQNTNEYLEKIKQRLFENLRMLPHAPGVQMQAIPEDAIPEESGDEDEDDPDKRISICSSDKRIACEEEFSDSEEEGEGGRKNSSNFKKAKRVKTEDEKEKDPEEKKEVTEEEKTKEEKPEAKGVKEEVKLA

The target of a further assay is HDAC6 (Homo sapiens (Human), UniProt Q9UBN7). Nature of the assay: HDAC6 enzymatic assay. The assay is classed as biochemical. The following applies: read-out: Human HDAC6 IC50. The procedure, abridged:
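Following a 17 hour room-temperature incubation of 2 ng HDAC6 with 10 uM substrate and compound, 50 μl developer was added for another 20 minutes, and fluorescence (excitation 360 nm, emission 460 nm) was recorded. Activity was normalized to no-compound (100%) and no-enzyme (0%) wells, and IC50 came from sigmoidal dose-response fitting in Graphpad Prism.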

Chain of HDAC6 (Q9UBN7 whole entry): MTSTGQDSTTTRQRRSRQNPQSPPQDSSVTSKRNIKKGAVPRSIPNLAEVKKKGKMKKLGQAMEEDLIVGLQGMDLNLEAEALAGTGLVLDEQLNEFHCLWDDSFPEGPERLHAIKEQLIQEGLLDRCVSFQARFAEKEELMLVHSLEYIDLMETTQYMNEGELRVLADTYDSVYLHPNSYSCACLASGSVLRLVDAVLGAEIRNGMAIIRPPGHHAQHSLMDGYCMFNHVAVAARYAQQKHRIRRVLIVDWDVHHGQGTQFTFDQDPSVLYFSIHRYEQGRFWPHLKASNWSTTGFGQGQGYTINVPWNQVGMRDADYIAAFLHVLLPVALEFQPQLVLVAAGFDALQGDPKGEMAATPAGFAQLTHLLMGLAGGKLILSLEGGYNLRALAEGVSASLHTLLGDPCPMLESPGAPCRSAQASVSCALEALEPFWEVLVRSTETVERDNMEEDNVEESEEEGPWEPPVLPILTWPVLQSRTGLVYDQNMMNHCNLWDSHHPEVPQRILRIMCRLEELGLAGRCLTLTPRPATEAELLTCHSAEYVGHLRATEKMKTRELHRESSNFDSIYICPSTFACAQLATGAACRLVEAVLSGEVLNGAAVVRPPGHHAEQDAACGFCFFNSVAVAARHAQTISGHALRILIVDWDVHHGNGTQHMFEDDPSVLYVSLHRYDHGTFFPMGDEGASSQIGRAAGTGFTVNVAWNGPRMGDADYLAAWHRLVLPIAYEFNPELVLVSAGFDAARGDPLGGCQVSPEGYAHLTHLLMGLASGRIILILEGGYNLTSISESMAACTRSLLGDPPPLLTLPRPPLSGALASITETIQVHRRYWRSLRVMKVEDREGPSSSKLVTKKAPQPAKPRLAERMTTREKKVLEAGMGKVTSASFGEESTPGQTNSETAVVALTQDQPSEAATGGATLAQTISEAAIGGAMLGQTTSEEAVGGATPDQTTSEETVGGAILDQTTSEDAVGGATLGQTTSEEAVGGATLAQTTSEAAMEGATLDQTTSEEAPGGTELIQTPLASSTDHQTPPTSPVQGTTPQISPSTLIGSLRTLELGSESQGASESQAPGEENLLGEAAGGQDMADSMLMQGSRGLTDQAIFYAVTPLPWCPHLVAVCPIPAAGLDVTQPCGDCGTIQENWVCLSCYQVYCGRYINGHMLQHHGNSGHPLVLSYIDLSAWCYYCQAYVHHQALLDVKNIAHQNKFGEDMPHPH

Usually IC50 stands for the concentration needed to halve the response being measured. Consider `CS(=O)(=O)NCC(Nc1ncc(-c2nnc(C(F)F)o2)cn1)c1ccc(F)cc1` (stereo not drawn) [Example 38, N-(2-((5-(5-(difluoromethyl)-1,3,4-oxadiazol-2-yl)pyrimidin-2-yl)amino)-2-(4-fluorophenyl)ethyl)methanesulfonamide], for which the values for the IC50 at HDAC1 and on HDAC6 were greater than 30 µM and 0.029 µM, respectively.

Take `O=S(=O)(NCC(Nc1ncc(-c2nnc(C(F)F)o2)cn1)c1ccc(F)cc1)c1ccccc1` (stereo not drawn) [Example 39, N-(2-((5-(5-(difluoromethyl)-1,3,4-oxadiazol-2-yl)pyrimidin-2-yl)amino)-2-(4-fluorophenyl)ethyl)benzenesulfonamide]: the IC50 is greater than 30 µM at HDAC1 and 0.05 µM on HDAC6.

Take `COc1ccccc1C1(Nc2ncc(-c3nnc(C(F)(F)F)o3)cn2)CC1` [Example 40, N-(1-(2-methoxyphenyl)cyclopropyl)-5-(5-(trifluoromethyl)-1,3,4-oxadiazol-2-yl)pyrimidin-2-amine]: the IC50 on HDAC1 was greater than 30 µM; at HDAC6, 0.22 µM.

For `COc1cccc(C2(Nc3ncc(-c4nnc(C(F)(F)F)o4)cn3)CC2)c1` [Example 41, N-(1-(3-methoxyphenyl)cyclopropyl)-5-(5-(trifluoromethyl)-1,3,4-oxadiazol-2-yl)pyrimidin-2-amine], the IC50 at HDAC1 is greater than 30 µM; on HDAC6, 0.25 µM.

Turning to `COc1ccc(C2(Nc3ncc(-c4nnc(C(F)(F)F)o4)cn3)CC2)cc1` [Example 42, N-(1-(4-methoxyphenyl)cyclopropyl)-5-(5-(trifluoromethyl)-1,3,4-oxadiazol-2-yl)pyrimidin-2-amine], the figures for the IC50 at HDAC1 and at HDAC6 were greater than 30 µM and 0.25 µM, respectively.

Take `COc1cccc(C2(Nc3ncc(-c4nnc(C(F)F)o4)cn3)CC2)c1` [Example 43, 5-(5-(difluoromethyl)-1,3,4-oxadiazol-2-yl)-N-(1-(3-methoxyphenyl)cyclopropyl)pyrimidin-2-amine]: the IC50 was greater than 30 µM on HDAC1 and 0.039 µM at HDAC6.

In the case of `COc1ccc(C2(Nc3ncc(-c4nnc(C(F)F)o4)cn3)CC2)cc1` [Example 44, 5-(5-(difluoromethyl)-1,3,4-oxadiazol-2-yl)-N-(1-(4-methoxyphenyl)cyclopropyl)pyrimidin-2-amine], the IC50 on HDAC1 is greater than 30 µM; on HDAC6, 0.044 µM.

As for `FC(F)c1nnc(-c2cnc(NC3(c4ccc(C(F)(F)F)cc4)CC3)nc2)o1` [Example 45, 5-(5-(difluoromethyl)-1,3,4-oxadiazol-2-yl)-N-(1-(4-(trifluoromethyl)phenyl)cyclopropyl) pyrimidin-2-amine], the IC50 is greater than 30 µM on HDAC1 and 0.064 µM at HDAC6.

For the compound `COc1ccccc1C1(Nc2ncc(-c3nnc(C(F)F)o3)cn2)CC1` [Example 46, 5-(5-(difluoromethyl)-1,3,4-oxadiazol-2-yl)-N-(1-(2-methoxyphenyl)cyclopropyl)pyrimidin-2-amine], the values for the IC50 on HDAC1 and on HDAC6 were greater than 30 µM and 0.023 µM, respectively.

With `FC(F)c1nnc(-c2cnc(NC3(c4ccc(Br)cc4)CC3)nc2)o1` [Example 47, N-(1-(4-bromophenyl)cyclopropyl)-5-(5-(difluoromethyl)-1,3,4-oxadiazol-2-yl)pyrimidin-2-amine], the figures for the 50% inhibitory concentration (IC50) at HDAC1 and on HDAC6 were greater than 30 µM and 0.027 µM, respectively.

On to `N#Cc1ccc(C2(Nc3ncc(-c4nnc(C(F)F)o4)cn3)CC2)cc1` [Example 48, 4-(1-((5-(5-(difluoromethyl)-1,3,4-oxadiazol-2-yl)pyrimidin-2-yl)amino)cyclopropyl) benzonitrile], for which the half-maximal inhibitory concentration (IC50) was greater than 30 µM at HDAC1 and 0.046 µM on HDAC6.

Regarding `FC(F)c1nnc(-c2cnc(NC3(c4cccc(C(F)(F)F)c4)CC3)nc2)o1` [Example 49, 5-(5-(difluoromethyl)-1,3,4-oxadiazol-2-yl)-N-(1-(3-(trifluoromethyl)phenyl)cyclopropyl) pyrimidin-2-amine], the concentration for half-maximal inhibition (IC50) at HDAC1 is greater than 30 µM; at HDAC6 it was 0.016 µM.

Regarding `FC(F)c1nnc(-c2cnc(NC3(c4ccc(Cl)cc4)CC3)nc2)o1` [Example 50, N-(1-(4-chlorophenyl)cyclopropyl)-5-(5-(difluoromethyl)-1,3,4-oxadiazol-2-yl)pyrimidin-2-amine], the half-maximal inhibitory concentration (IC50) on HDAC1 was greater than 30 µM; at HDAC6, 0.03 µM.

`FC(F)c1nnc(-c2cnc(NC3(c4cccc(Cl)c4)CC3)nc2)o1` [Example 51, N-(1-(3-chlorophenyl)cyclopropyl)-5-(5-(difluoromethyl)-1,3,4-oxadiazol-2-yl)pyrimidin-2-amine]: the IC50 at HDAC1 was greater than 30 µM; on HDAC6 it was 0.015 µM.

For `FC(F)c1nnc(-c2cnc(NC3(c4ccccc4Cl)CC3)nc2)o1` [Example 52, N-(1-(2-chlorophenyl)cyclopropyl)-5-(5-(difluoromethyl)-1,3,4-oxadiazol-2-yl)pyrimidin-2-amine], the IC50 was greater than 30 µM on HDAC1 and 0.006 µM at HDAC6.

As for `FC(F)c1nnc(-c2cnc(NC3(c4cccc(OC(F)(F)F)c4)CC3)nc2)o1` [Example 53, 5-(5-(difluoromethyl)-1,3,4-oxadiazol-2-yl)-N-(1-(3-(trifluoromethoxy)phenyl)cyclopropyl) pyrimidin-2-amine], the IC50 is greater than 30 µM on HDAC1 and 0.023 µM on HDAC6.

`FC(F)c1nnc(-c2cnc(NC3(c4ccc(OC(F)(F)F)cc4)CC3)nc2)o1` [Example 54, 5-(5-(difluoromethyl)-1,3,4-oxadiazol-2-yl)-N-(1-(4-(trifluoromethoxy)phenyl)cyclopropyl) pyrimidin-2-amine]: the IC50 at HDAC1 is greater than 30 µM; at HDAC6, 0.022 µM.

On to `FC(F)c1nnc(-c2cnc(NC3(c4ccccc4OC(F)(F)F)CC3)nc2)o1` [Example 55, 5-(5-(difluoromethyl)-1,3,4-oxadiazol-2-yl)-N-(1-(2-(trifluoromethoxy)phenyl)cyclopropyl) pyrimidin-2-amine], for which the IC50 on HDAC1 is greater than 30 µM; at HDAC6 it was 0.02 µM.

On to `Fc1ccccc1C1(Nc2ncc(-c3nnc(C(F)F)o3)cn2)CC1` [Example 56, 5-(5-(difluoromethyl)-1,3,4-oxadiazol-2-yl)-N-(1-(2-fluorophenyl)cyclopropyl)pyrimidin-2-amine], for which the results for the IC50 on HDAC1 and at HDAC6 were greater than 100 µM and 0.006 µM, respectively.

Regarding `Fc1cccc(C2(Nc3ncc(-c4nnc(C(F)F)o4)cn3)CC2)c1` [Example 57, 5-(5-(difluoromethyl)-1,3,4-oxadiazol-2-yl)-N-(1-(3-fluorophenyl)cyclopropyl)pyrimidin-2-amine], the values for the IC50 at HDAC1 and on HDAC6 were greater than 100 µM and 0.015 µM, respectively.

With `FC(F)c1nnc(-c2cnc(NC3(c4ccccc4C(F)(F)F)CC3)nc2)o1` [Example 58, 5-(5-(difluoromethyl)-1,3,4-oxadiazol-2-yl)-N-(1-(2-(trifluoromethyl)phenyl)cyclopropyl) pyrimidin-2-amine], the figures for the concentration for half-maximal inhibition (IC50) at HDAC1 and at HDAC6 were greater than 30 µM and 0.04 µM, respectively.

For `Fc1ccc(C2(Nc3ncc(-c4nnc(C(F)F)o4)cn3)CC2)cc1F` [Example 59, 5-(5-(difluoromethyl)-1,3,4-oxadiazol-2-yl)-N-(1-(3,4-difluorophenyl)cyclopropyl) pyrimidin-2-amine], the IC50 on HDAC1 was greater than 30 µM; at HDAC6, 0.021 µM.

In the case of `Fc1cccc(C2(Nc3ncc(-c4nnc(C(F)F)o4)cn3)CC2)c1F` [Example 60, 5-(5-(difluoromethyl)-1,3,4-oxadiazol-2-yl)-N-(1-(2,3-difluorophenyl)cyclopropyl) pyrimidin-2-amine], the IC50 is greater than 30 µM at HDAC1 and 0.022 µM at HDAC6.

With `Fc1ccc(F)c(C2(Nc3ncc(-c4nnc(C(F)F)o4)cn3)CC2)c1` [Example 61, 5-(5-(difluoromethyl)-1,3,4-oxadiazol-2-yl)-N-(1-(2,5-difluorophenyl)cyclopropyl) pyrimidin-2-amine], the IC50 is greater than 30 µM at HDAC1 and 0.022 µM at HDAC6.

Regarding `Fc1ccc(C2(Nc3ncc(-c4nnc(C(F)F)o4)cn3)CC2)c(C(F)(F)F)c1` [Example 63, 5-(5-(difluoromethyl)-1,3,4-oxadiazol-2-yl)-N-(1-(4-fluoro-2-(trifluoromethyl)phenyl)cyclopropyl) pyrimidin-2-amine], the results for the IC50 on HDAC1 and on HDAC6 were greater than 30 µM and 0.088 µM, respectively.

In the case of `FC(F)c1nnc(-c2cnc(NC3(c4ccc(Br)nc4)CC3)nc2)o1` [Example 64, N-(1-(6-bromopyridin-3-yl)cyclopropyl)-5-(5-(difluoromethyl)-1,3,4-oxadiazol-2-yl)pyrimidin-2-amine], the IC50 on HDAC1 is greater than 30 µM; at HDAC6, 0.028 µM.

Turning to `FC(F)c1nnc(-c2cnc(NC3(c4cccnc4)CC3)nc2)o1` [Example 65, 5-(5-(difluoromethyl)-1,3,4-oxadiazol-2-yl)-N-(1-(pyridin-3-yl)cyclopropyl)pyrimidin-2-amine], the IC50 on HDAC1 is greater than 30 µM; on HDAC6, 0.39 µM.

As to `Fc1cc(Cl)ccc1C1(Nc2ncc(-c3nnc(C(F)F)o3)cn2)CC1` [Example 66], the half-maximal inhibitory concentration (IC50) at HDAC1 is greater than 30 µM; at HDAC6 it was 0.042 µM.

Turning to `Fc1ccc(C2(Nc3ncc(-c4nnc(C(F)F)o4)cn3)CC2)nc1` [Example 67, 5-(5-(difluoromethyl)-1,3,4-oxadiazol-2-yl)-N-(1-(5-fluoropyridin-2-yl)cyclopropyl) pyrimidin-2-amine], the IC50 on HDAC1 is greater than 30 µM; on HDAC6, 0.19 µM.

Consider `FC(F)c1nnc(-c2cnc(NC3(c4ccc(OCC(F)(F)F)cc4)CC3)nc2)o1` [Example 68, 5-(5-(difluoromethyl)-1,3,4-oxadiazol-2-yl)-N-(1-(4-(2,2,2-trifluoroethoxy)phenyl)cyclopropyl) pyrimidin-2-amine], for which the IC50 was greater than 30 µM on HDAC1 and 0.1 µM at HDAC6.

The record behind these values is US10357493B2, “Metalloenzyme inhibitor compounds” (Selenity Therapeutics (Bermuda), Ltd., priority 2017, dated 2019).
